# Positions of bridges follow the written chain, without caps; N, C: chain ends. Residues, ends and D or L forms follow the SMILES beside them.
# Experiments:
# [1] = system: conscious normotensive rabbits; assay: Blood pressure and heart rate in conscious normotensive rabbits, intravenous bolus of TDT analogs (Example 17); settings: i.v. bolus 0.24 mg/kg; for MAP, mean difference from control: at MAP minimum
# [2] = molecular target: T1, NPR-A signaling in HeLa cells (Homo sapiens, UniProt P16066); assay: cGMP AlphaScreen assay in HeLa cells (Examples 14, 15); type: cell-based; settings: 30 minutes at 37° C.
# T1 construct: Cyclic GMP (cGMP) elevation in HeLa cells in response to Natriuretic Peptide stimulation; endogenous in cells; host or cells: HeLa cells
# T1 sequence (P16066 33-1061): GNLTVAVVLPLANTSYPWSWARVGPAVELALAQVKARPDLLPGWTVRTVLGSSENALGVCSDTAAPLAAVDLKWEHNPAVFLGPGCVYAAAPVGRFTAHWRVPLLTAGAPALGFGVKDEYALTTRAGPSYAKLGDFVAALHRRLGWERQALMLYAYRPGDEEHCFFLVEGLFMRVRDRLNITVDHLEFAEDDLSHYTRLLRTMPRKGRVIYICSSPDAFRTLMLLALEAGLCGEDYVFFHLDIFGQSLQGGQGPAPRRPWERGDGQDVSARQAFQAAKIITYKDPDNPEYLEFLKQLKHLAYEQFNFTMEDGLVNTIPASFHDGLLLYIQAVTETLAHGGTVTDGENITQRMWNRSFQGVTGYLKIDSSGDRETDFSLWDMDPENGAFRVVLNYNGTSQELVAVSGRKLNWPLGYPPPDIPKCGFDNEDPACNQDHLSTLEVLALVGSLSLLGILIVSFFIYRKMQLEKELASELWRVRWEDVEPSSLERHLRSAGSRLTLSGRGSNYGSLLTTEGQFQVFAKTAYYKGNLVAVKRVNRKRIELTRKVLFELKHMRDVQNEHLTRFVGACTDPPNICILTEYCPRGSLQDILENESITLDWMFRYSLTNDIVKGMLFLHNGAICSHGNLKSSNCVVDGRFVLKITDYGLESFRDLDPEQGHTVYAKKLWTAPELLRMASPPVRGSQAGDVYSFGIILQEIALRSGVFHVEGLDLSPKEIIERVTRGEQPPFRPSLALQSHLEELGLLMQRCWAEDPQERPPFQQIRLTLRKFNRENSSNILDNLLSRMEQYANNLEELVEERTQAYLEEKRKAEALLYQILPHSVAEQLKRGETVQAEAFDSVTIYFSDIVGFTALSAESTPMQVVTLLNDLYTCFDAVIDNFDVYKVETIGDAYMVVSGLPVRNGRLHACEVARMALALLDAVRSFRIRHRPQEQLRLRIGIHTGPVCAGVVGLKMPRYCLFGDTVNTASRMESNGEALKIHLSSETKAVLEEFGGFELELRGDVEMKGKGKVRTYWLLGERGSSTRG
# Experimental: HeLa cells were maintained in RPMI cell culture medium (Gihco Invitrogen, Mt Waverley, Australia) supplemented with 10% Foetal Bovine Serum (Cambrex Bio Science, Rockland, USA). Upon reaching confluence, cells were sub-cultured such that they would be 70-90% confluent at time of assay.
# Cyclic GMP (cGMP) elevation in HeLa cells in response to Natriuretic Peptide stimulation was performed using a cGMP AlphaScreen kit (PerkinElmer, Boston, USA), as follows for normal experiments: Cells were detached, pelleted to remove growth medium, and resuspended in Stimulation Buffer (Hank's Balanced Salt Solution, 0.1% Bovine Serum Albumin [BSA] (Sigma-Aldrich, Castle Hill, Australia), 1 mM 3-Isobutyl-1-methylxanthine [IBMX] (Sigma-Aldrich, Castle Hill, Australia)) and diluted to 6×10^6 cells per mL (30 000 cells per 5 μL). 5 μL of cells were added to wells of white 384-well OptiPlates (PerkinElmer, Boston, USA), and stimulated with increasing concentrations of peptide for 30 minutes at 37° C. Cells were then lysed with 10 μL Lysis buffer (dH2O, 0.3% Tween-20 (Sigma-Aldrich, Castle Hill, Australia), 5 mM HEPES (JRH Biosciences, Kansas, USA) and 0.1% BSA) and 5 μL acceptor bead mix (10 μL per mL acceptor beads and 1/3000 anti-cGMP antibody (BioVision, Mountain View, USA) in lysis buffer) added per well in the dark. Plates were incubated in the dark at room temperature for 30 minutes, then 5 μL donor bead mix (10 μL per ML donor beads and 0.3 nM biotinylated cGMP in lysis buffer) was added per well in the dark and the plate incubated overnight at room temperature. Signal was read using an EnVision plate reader (PerkinElmer, Boston, USA) and data analysed using Prism software. The cGMP standard curve was performed as per manufacturer's instructions.
# To examine whether TNPc and synthetic analogs produced in the inventors' laboratory could stimulate NPR-A signaling, cGMP elevations in HeLa cells in response to these peptides were measured, as described above.
# [3] = −Log10EC50 (pEC50) ± Standard Error, cGMP accumulation in HeLa cells
Structure (SMILES),"HR, mean difference from control [1]","time after administration at which the MAP effect occurred, on average [1]","MAP, mean difference from control [1]","EC50 ([2]; EC50, cGMP accumulation in HeLa cells)","EC50 [2, 3]"
CC[C@H](C)[C@H](NC(=O)[C@H](CCCCN)NC(=O)[C@H](CO)NC(=O)[C@H](CC(=O)O)NC(=O)[C@@H](N)CO)C(=O)NCC(=O)N[C@@H](CC(N)=O)C(=O)NCC(=O)N[C@H]1CSSC[C@@H](C(=O)N[C@@H](CC(N)=O)C(=O)N[C@@H](CCCNC(=N)N)C(=O)N[C@H](C(=O)N[C@@H](CCSC)C(=O)N[C@@H](CCC(N)=O)C(=O)N[C@@H](CC(N)=O)C(=O)N2CCC[C@H]2C(=O)N2CCC[C@H]2C(=O)N[C@@H](CCCCN)C(=O)N[C@@H](CCCCN)C(=O)N[C@@H](Cc2ccccc2)C(=O)N[C@@H](CO)C(=O)NCC(=O)N[C@@H](CCC(=O)O)C(=O)O)[C@@H](C)CC)NC(=O)CNC(=O)[C@H](CC(C)C)NC(=O)[C@H](CC(N)=O)NC(=O)[C@H](CO)NC(=O)[C@H](C(C)C)NC(=O)[C@H](Cc2c[nH]cn2)NC(=O)[C@H](CC(N)=O)NC(=O)[C@H]([C@@H](C)CC)NC(=O)[C@H](CCCNC(=N)N)NC(=O)[C@H](CC(=O)O)NC(=O)[C@H]([C@@H](C)CC)NC(=O)[C@H](CCCCN)NC(=O)[C@H](CCCNC(=N)N)NC(=O)CNC(=O)[C@H](Cc2ccccc2)NC1=O [H12R-TDT],−7±5 b/min,97 min,−9.2±2.2 mmHg,–,–
CC[C@H](C)[C@H](NC(=O)[C@H](CCCCN)NC(=O)[C@H](CO)NC(=O)[C@H](CC(=O)O)NC(=O)[C@@H](N)CO)C(=O)NCC(=O)N[C@@H](CC(N)=O)C(=O)NCC(=O)N[C@H]1CSSC[C@@H](C(=O)N[C@@H](CC(N)=O)C(=O)N[C@@H](CCCNC(=N)N)C(=O)N[C@H](C(=O)N[C@@H](CCSC)C(=O)N[C@@H](CCC(N)=O)C(=O)N[C@@H](CC(N)=O)C(=O)N2CCC[C@H]2C(=O)N2CCC[C@H]2C(=O)N[C@@H](CCCCN)C(=O)N[C@@H](CCCCN)C(=O)N[C@@H](Cc2ccccc2)C(=O)N[C@@H](CO)C(=O)NCC(=O)N[C@@H](CCC(=O)O)C(=O)O)[C@@H](C)CC)NC(=O)CNC(=O)[C@H](CC(C)C)NC(=O)[C@H](CC(N)=O)NC(=O)[C@H](CO)NC(=O)[C@H](C)NC(=O)[C@H](Cc2c[nH]cn2)NC(=O)[C@H](CC(N)=O)NC(=O)[C@H]([C@@H](C)CC)NC(=O)[C@H](CCCNC(=N)N)NC(=O)[C@H](CC(=O)O)NC(=O)[C@H]([C@@H](C)CC)NC(=O)[C@H](CCCCN)NC(=O)[C@H](Cc2c[nH]cn2)NC(=O)CNC(=O)[C@H](Cc2ccccc2)NC1=O [V20A-TDT] (H-SDSKIGNGCFGHKIDRINHASNLGCNRIMQNPPKKFSGE-OH; disulfide 9-25),–,–,–,455 nM,382 nM
CC[C@H](C)[C@H](NC(=O)[C@H](CCCCN)NC(=O)[C@H](CO)NC(=O)[C@H](CC(=O)O)NC(=O)[C@@H](N)CO)C(=O)NCC(=O)N[C@@H](CC(N)=O)C(=O)NCC(=O)N[C@H]1CSSC[C@@H](C(=O)N[C@@H](CC(N)=O)C(=O)N[C@@H](CCCNC(=N)N)C(=O)N[C@H](C(=O)N[C@@H](CCSC)C(=O)N[C@@H](CCC(N)=O)C(=O)N[C@@H](CC(N)=O)C(=O)N2CCC[C@H]2C(=O)N2CCC[C@H]2C(=O)N[C@@H](CCCCN)C(=O)N[C@@H](CCCCN)C(=O)N[C@@H](Cc2ccccc2)C(=O)N[C@@H](CO)C(=O)NCC(=O)N[C@@H](CCC(=O)O)C(=O)O)[C@@H](C)CC)NC(=O)CNC(=O)[C@H](CC(C)C)NC(=O)CNC(=O)[C@H](CO)NC(=O)[C@H](C(C)C)NC(=O)[C@H](Cc2c[nH]cn2)NC(=O)[C@H](CC(N)=O)NC(=O)[C@H]([C@@H](C)CC)NC(=O)[C@H](CCCNC(=N)N)NC(=O)[C@H](CC(=O)O)NC(=O)[C@H]([C@@H](C)CC)NC(=O)[C@H](CCCCN)NC(=O)[C@H](Cc2c[nH]cn2)NC(=O)CNC(=O)[C@H](Cc2ccccc2)NC1=O [N22G-TDT] (H-SDSKIGNGCFGHKIDRINHVSGLGCNRIMQNPPKKFSGE-OH; disulfide 9-25),little effect on HR,140 min,−17.4±7.6 mmHg,–,3.14 nM

# Reference: patent US8058242B2, “Chimeric proteins with natriuretic activity” (The University of Queensland, priority 2004, dated 2011)
